US20080306076A1, “MODULATION OF CHEMOSENSORY RECEPTORS AND LIGANDS ASSOCIATED THEREWITH” (SENOMYX, INC., priority 2007, published 2008)

Biological target: T1, hT1R1 D192A (Homo sapiens, UniProt Q7RTX1, D192A)
T1 construct: expressed in transfected cells; host or cells: HEK293, transient transfection
T1 sequence (Q7RTX1 21-841 D192A): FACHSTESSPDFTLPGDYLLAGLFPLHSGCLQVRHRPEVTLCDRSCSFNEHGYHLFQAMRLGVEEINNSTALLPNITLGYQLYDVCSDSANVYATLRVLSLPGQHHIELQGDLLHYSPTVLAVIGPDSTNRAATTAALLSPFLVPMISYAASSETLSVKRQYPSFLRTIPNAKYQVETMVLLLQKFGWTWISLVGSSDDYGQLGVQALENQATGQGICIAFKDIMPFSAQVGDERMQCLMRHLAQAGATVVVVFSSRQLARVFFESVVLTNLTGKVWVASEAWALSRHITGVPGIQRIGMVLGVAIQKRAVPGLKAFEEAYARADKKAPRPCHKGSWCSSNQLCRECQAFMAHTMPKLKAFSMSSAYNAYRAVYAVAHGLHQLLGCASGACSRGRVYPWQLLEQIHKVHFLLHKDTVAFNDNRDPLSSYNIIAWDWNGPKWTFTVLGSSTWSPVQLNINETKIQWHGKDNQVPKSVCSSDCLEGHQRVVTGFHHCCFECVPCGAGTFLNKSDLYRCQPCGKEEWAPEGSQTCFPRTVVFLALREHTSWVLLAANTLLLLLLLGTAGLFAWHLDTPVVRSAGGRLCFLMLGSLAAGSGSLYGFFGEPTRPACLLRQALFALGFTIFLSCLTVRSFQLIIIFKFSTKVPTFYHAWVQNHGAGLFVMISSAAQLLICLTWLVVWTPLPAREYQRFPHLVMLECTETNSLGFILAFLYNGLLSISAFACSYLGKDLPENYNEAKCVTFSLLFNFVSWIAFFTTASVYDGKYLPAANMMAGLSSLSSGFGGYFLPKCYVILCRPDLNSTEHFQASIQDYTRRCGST
T1 sequence (Q923K1 21-858 partner): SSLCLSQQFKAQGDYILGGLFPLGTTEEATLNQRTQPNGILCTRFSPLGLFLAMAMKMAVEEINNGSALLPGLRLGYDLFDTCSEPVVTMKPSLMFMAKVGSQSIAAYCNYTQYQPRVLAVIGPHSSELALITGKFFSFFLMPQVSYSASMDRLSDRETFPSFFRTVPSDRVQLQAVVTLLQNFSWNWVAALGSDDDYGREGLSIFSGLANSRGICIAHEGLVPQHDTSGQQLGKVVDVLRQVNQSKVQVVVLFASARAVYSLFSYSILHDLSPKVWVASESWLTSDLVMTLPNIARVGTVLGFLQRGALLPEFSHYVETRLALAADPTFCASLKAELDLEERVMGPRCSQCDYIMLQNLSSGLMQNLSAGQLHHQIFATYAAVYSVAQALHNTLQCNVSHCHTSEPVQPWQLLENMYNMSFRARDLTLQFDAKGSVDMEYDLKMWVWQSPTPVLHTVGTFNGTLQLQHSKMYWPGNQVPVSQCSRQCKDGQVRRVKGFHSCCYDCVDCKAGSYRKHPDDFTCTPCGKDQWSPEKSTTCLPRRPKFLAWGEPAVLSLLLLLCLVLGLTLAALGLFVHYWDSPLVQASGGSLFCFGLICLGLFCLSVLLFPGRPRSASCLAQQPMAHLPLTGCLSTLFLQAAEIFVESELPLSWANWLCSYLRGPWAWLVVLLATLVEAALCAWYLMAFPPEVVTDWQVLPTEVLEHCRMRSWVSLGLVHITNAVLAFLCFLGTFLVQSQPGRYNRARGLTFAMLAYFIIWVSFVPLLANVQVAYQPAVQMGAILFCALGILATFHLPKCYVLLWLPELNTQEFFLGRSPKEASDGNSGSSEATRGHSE
Assay: Mutagenesis study, hT1R1 mutant D192A
Assay type: cell-based
Conditions: D192 mutant, FIG. 11
From the text: In order to further define the interaction sites of umami stimuli, we performed site-directed mutagenesis on human T1R1 VFT. The mutagenesis was done using the routine PCR-based method. […] were transiently transfected into HEK293 cell together with the rat T1R3 wild type cDNA, and the transfected cells were characterized using an automated FLIPR machine or a calcium imaging system as described in our previous patent applications.

Question: Which “activity against L-Glu” value does the source give for `N[C@@H](CCC(=O)O)C(=O)O` [L-Glu, L-glutamate] here?
Answer: significant reduced activity
